Reference: US20250275982A1, “SOLID FORM FORMULATION COMPRISING CHROMIUM OR COPPER OR A VITAMIN, COMPOSITIONS AND USES THEREOF” (ALESCO S.R.L., priority 2019, published 2025)
Where a name gives a salt, the structure may show the parent alone.

Key:
Format in all cases: cell-based
[1] = tested on: differentiated mouse myoblasts; assay: Glucose uptake study: intracellular glucose colorimetric assay in insulin-treated differentiated mouse myoblasts
Excerpt: (§1) In vitro efficacy study: evaluation of the modulation of the carbohydrate metabolism by two compositions comprising a chromium salt (Composition 1 and Composition 2) in a culture of differentiated mouse myoblasts.
(§2) The following endpoints were considered:—glucose uptake, by means of intracellular glucose assay; • expression of GLUT-4, insulin-sensitive glucose transporter; and • ATP content, the primary source of energy for cellular biochemical reactions.
(§3) The experimental model used in this study is differentiated mouse myoblasts (ATCC Number: CRL-1772, lot 70013341), cultured in Dulbecco's Modified Eagle's Medium (DMEM) supplemented with 10% foetal bovine serum at 37° C., 5% CO2. The formation of myotubes is induced by adding horse serum.
(§4) The experimental protocol provided for: • Untreated control cells (CTR-); • Insulin-treated control cells (100 nM); • Insulin-treated cells and the Compounds in question (Composition 1 and Composition 2); • Insulin-treated cells and the reference Compound (metformin).
(§5) Three concentrations of each composition under study (Composition 1 and 2) were tested: 500 μM, 100 µM and 50 μM (Cr). The preparation of the samples involved the use of DMSO as solvent.
(§6) The reference Compound (metformin hydrochloride) was tested at 2000 μm. • The treatment of the cells with Composition 1 and 2 and reference Composition extended for 24 hours.
(§7) The cultures were then treated with insulin (100 nM) for 4 hours. A source of glucose was added to the media in the glucose uptake evaluation study. The treatments were conducted in quadruplicate.
(§8) At the end of the treatments the cells were lysed to obtain a cell homogenate on which it was assayed: • glucose, by means of colorimetric assay; • ATP, by means of colorimetric assay; • GLUT-4, by means of ELISA technique.
(§9) Commercially available colorimetric and ELISA kits were used.
(§10) The colorimetric kits use a specific probe, a mixture of reaction enzymes and a curve with known amounts of each standard.
(§11) The data obtained in the experimental groups treated with the samples subject of the study were subjected to statistical analysis and compared with each other and with insulin according to the t-test. Variations are considered significant for p<0.05.
(§12) Glucose assay: the results (Table 2 and FIG. 1) are expressed as mean content±st.dev. (expressed in nanomoles) and as a mean % variation with respect to treatment with insulin. Statistically significant data with respect to insulin are reported with *, while ^∘ indicates differences between tested compounds.

GLUT-4 = GLUT-4 study: ELISA of GLUT-4 in cell homogenate of insulin-treated differentiated mouse myoblasts
Excerpt: as §1, §2, §3, §4, §5, §6, §7, §8, §9
ELISA kits exploit the competitive binding of an antigen (in this case GLUT-4) with its primary antibody. The immune complex (antigen-antibody) is in turn recognised by a secondary antibody conjugated to a peroxidase. The addition of the peroxidase substrate produces a colorimetric reaction with intensity proportional to the amount of immune complexes present and thus to the amount of bound target molecule. Quantitative determination exploits a calibration curve constructed with known and increasing concentrations of standard marker.
as §11
as §12, with “GLUT-4” for “Glucose”, “3” for “2”, “2)” for “1)”, “μg/L)” for “nanomoles)”

[2] = tested on: differentiated mouse myoblasts; assay: ATP study: colorimetric assay of ATP content in insulin-treated differentiated mouse myoblasts
Excerpt: as §1, §2, §3, §4, §5, §6, §7, §8, §9, §10, §11
as §12, with “ATP” for “Glucose”, “4” for “2”, “3)” for “1)”

[3] = 2000 um for 24 hours + insulin 100 nM for 4 hours
[4] = insulin 100 nM for 4 hours, insulin-treated control cells
[5] = 50 μM (Cr) for 24 hours + insulin 100 nM for 4 hours
[6] = 100 μM (Cr) for 24 hours + insulin 100 nM for 4 hours
[7] = 500 μM (Cr) for 24 hours + insulin 100 nM for 4 hours
[8] = at 500 µM and 100 µM, significance vs. insulin p<0.05

For `CN(C)C(=N)N=C(N)N` [Metformin, metformin hydrochloride], the “% var. vs. insulin (glucose assay)” value ([1]; 2000 um + insulin) was 24.6%, the “mean value (glucose assay, mean content)” value [1, 3] was 11.73 nmol and the “% var. vs. insulin (GLUT-4 assay)” value (GLUT-4; 2000 um + insulin) was 28.0%. The “mean value (GLUT-4 assay, mean content)” value (GLUT-4; [3]) was 6.71 µg/L, the “% var. vs. insulin (ATP assay)” value ([2]; 2000 um + insulin) was 17.6% and the “mean value (ATP assay, mean content)” value [2, 3] was 4.61 nmol.
For “Insulin: insulin (100 nM) used to treat control cells and all treated cultures”, the “mean value (glucose assay, mean content)” value [1, 4] was 9.42 nmol, the “mean value (GLUT-4 assay, mean content)” value (GLUT-4; [4]) was 5.24 µg/L and the “mean value (ATP assay, mean content)” value [2, 4] was 3.92 nmol.
“chromium (III) picolinate [CR picolinate]” was tested, and the “mean value (glucose assay, mean content)” value [1, 5] was 10.24 nmol, the “% var. vs. insulin (glucose assay)” value ([1]; 50 μM + insulin) was 8.7% and the “mean value (glucose assay, mean content)” value [1, 6] was 11.08 nmol. For the same compound, the “% var. vs. insulin (glucose assay)” value ([1]; 100 μM + insulin) was 17.6%, the “mean value (glucose assay, mean content)” value [1, 7] was 11.24 nmol and the “% var. vs. insulin (glucose assay)” value ([1]; 500 μM + insulin) was 19.3%. For the same compound, the “glucose uptake, behaviour over the three concentrations, in words” value ([1]; 500, 100 and 50 μM) was “showed a dose-dependent behaviour”, the “insulin-dependent glucose uptake, result in words” value [1, 8] was “effective in significantly increasing insulin-dependent glucose uptake” and the “mean value (GLUT-4 assay, mean content)” value (GLUT-4; [5]) was 5.60 µg/L. For the same compound, the “% var. vs. insulin (GLUT-4 assay)” value (GLUT-4; 50 μM + insulin) was 6.8%, the “mean value (GLUT-4 assay, mean content)” value (GLUT-4; [6]) was 6.35 µg/L and the “% var. vs. insulin (GLUT-4 assay)” value (GLUT-4; 100 μM + insulin) was 21.1%. The “mean value (GLUT-4 assay, mean content)” value (GLUT-4; [7]) was 6.50 µg/L, the “% var. vs. insulin (GLUT-4 assay)” value (GLUT-4; 500 μM + insulin) was 24.0% and the “GLUT-4 levels, behaviour over the three concentrations, in words” value (GLUT-4; 500, 100 and 50 μM) was “showed a dose-dependent behaviour”. The “levels of GLUT-4 carrier, result in words” value (GLUT-4; [8]) was “effective in significantly increasing the levels of GLUT-4 carrier”, the “mean value (ATP assay, mean content)” value [2, 5] was 4.09 nmol and the “% var. vs. insulin (ATP assay)” value ([2]; 50 μM + insulin) was 4.3%. For the same compound, the “mean value (ATP assay, mean content)” value [2, 6] was 4.78 nmol, the “% var. vs. insulin (ATP assay)” value ([2]; 100 μM + insulin) was 22.1% and the “mean value (ATP assay, mean content)” value [2, 7] was 5.35 nmol. The “% var. vs. insulin (ATP assay)” value ([2]; 500 μM + insulin) was 36.5%, the “intracellular ATP, behaviour over the three concentrations, in words” value ([2]; 500, 100 and 50 μM) was “showed a dose-dependent behaviour” and the “intracellular ATP, statistical comparison between the compositions, in words” value ([2]; at 50 μM) was “does not show performance differences”. For the same compound, the “levels of intracellular ATP, result in words” value [2, 8] was “effective in significantly increasing the levels of intracellular ATP”.
